Assay [1] has as its system E. faecalis VE14089. As to the kind of experiment: Agar well diffusion assay. To be noted: estimated from halo diameter by nisin standard curve, relative to wt. The assay is classed as cell-based, Enterococcus faecalis. As to the method: (§1) L. lactis strains were cultured in M17 broth supplemented with 0.5% (w/v) glucose (GM17) or GM17 agar for genetic manipulation or in minimal expression medium (MEM) for protein expression at 30°C (Rink et al., [2005]). E. faecalis, S. aureus, S. pneumonia, and L. monocytogenes were grown in GM17 at 37°C or GM17 agar at different temperatures for agar diffusion assay. M. luteus was grown in Luria-Bertani broth shaken (200 rpm) at 30°C or LB agar at 20°C for agar diffusion assay. Bacillus strains were cultured in Brain Heart Infusion (BHI) shaken (200 rpm) or BHI agar at different temperatures for agar diffusion assay.
(§2) For the agar well diffusion assay, the same cultures as in the MIC value test were used and diluted 200 times with solid media. Identical sizes of wells (7.5 mm diameter) were made and 2 μg of hinge region analogs dissolved in 20 μl 0.05% acetic acid were added. The plates were incubated at different temperatures for at least 1 day until apparent halos appeared. For activity test at low temperature, the indicators were diluted in the same way but poured into smaller plates (52 mm diameter). The plates were incubated at 4°C overnight before the peptides were added. B. sporothermodurans IC4 and B. cereus 4153 were first incubated with the peptides at 4°C for 2 weeks then moved to 30°C and incubated overnight. The diameters of the halos were measured.
(§3) The antimicrobial activity of the hinge region analogs in solid media were tested by an agar well diffusion assay. The diameters of the halos were measured and the residual activity of the analogs were estimated according to the formula of the relationship between the concentration of nisin and the sizes of halos. We made use of the fact that the size of the halo is directly related to the log of nisin concentration. Of course this is an estimate of activity of the variants because any changes in diffusion of the variant bacteriocin or growth rates of indicator bacteria during the assay could also affect the size of the halo. (Table 5 and Supplementary Figure 1). The plates were shown in supplementary data (Supplementary Figures 2–8). […] And against L. lactis at 20°C, the inhibition zone was larger than nisin. […] The M. luteus grows quite fast at room temperature and only the +2 variant retained 55% of the activity of nisin. […]
(§4) To evaluate the activity of nisin on the agar plate, an agar well diffusion assay with gradient of nisin against Lactococcus lactis ( with two plasmids) was performed ( Supplementary Figur e 1 A). The diameter of the halos were measured (Supplementary Figure 1B). […]
(§5) the concentration of nisin is in liner relationship with diameter of the halos ( Supplementary Fi g u re 1C). According to the formula (1) , the relative activity of the peptides compared to nisin can be calculated b y the formula ( 2) .
(§6) Supplementary Figure 1. Relationship between concentration of nisin and diameter of the halos. (A) Agar well diffusion assay. Gradient concentration of nisin were made and dissolved in 30µl 0.05% acetic acid. Lactococcus lactis ( with two plasmids) was cultured overnight and diluted 250 times with GM17 agar before added to the plate. The final concentration of the cells was about 2×10^6 cells/milliliter. The plate was incubated for 1 da y. Concentrations of nisin were labeled. (B) log10 of the concentrati ons and diameters of the halo. (C) A linear curve w as made betw een t he diameters of the halo and log10s of the concentration of nisin.
(§7) (1 picture or pasted object on this page, not shown here)
(§8) Last Name a uthor 1 et al. Running Title
(§9) C = concentration of nisin d° = diameter of the halo of wild t ype […]

Assay [2] concerns L. monocytogenes. As to the kind of experiment: Agar well diffusion assay. Type of assay: cell-based, Listeria monocytogenes. To be noted: estimated from halo diameter by nisin standard curve, relative to wt. As to the method:
as §1, §2, §3, §4, §5, §6, §7, §8, §9

The test system of assay [3] is B. sporothermodurans IC4. As to the kind of experiment: Agar well diffusion assay. Type of assay: cell-based, Bacillus sporothermodurans. To be noted: 30 °C; estimated from halo diameter by nisin standard curve, relative to wt. Here is the method: as §1
as §2, with “B. sporothermodurans IC4 and B. cereus 4153 were first incubated with the peptides at 4°C for 2 weeks then moved to 30°C and incubated overnight.” left out
The antimicrobial activity of the hinge region analogs in solid media were tested by an agar well diffusion assay. The diameters of the halos were measured and the residual activity of the analogs were estimated according to the formula of the relationship between the concentration of nisin and the sizes of halos. […]
as §4
the concentration of nisin is in liner relationship with diameter of the halos ( Supplementary Fi g u re 1C). According to the formula (1) , the relative activity of the peptides compared to nisin can be calculated b y the formula ( 2) . […]

Assay [4] concerns M. luteus. As to the kind of experiment: Agar well diffusion assay. Type of assay: cell-based, Micrococcus luteus. To be noted: 20 °C; estimated from halo diameter by nisin standard curve, relative to wt. As to the method:
as §1, §2, §3, §4, §5
as §6, with “nisin. […]” for “nisin.”

For assay [5], the system named is L. lactis MG1363. As to the kind of experiment: Agar well diffusion assay. Type of assay: cell-based, Lactococcus lactis. To be noted: relative to wt. Here is the method: as §1, §2, §3, §4, §5, §6, §7, §8, §9
For assay [6], the system named is Micrococcus luteus. As to the kind of experiment: MIC in liquid culture. The assay is classed as cell-based. To be noted: MIC value of nisin divided by that of the analog. As to the method: as §1
(§10) The indicator strains were cultured until OD (600 nm) reached 0.5. Before MIC value test, the culture was diluted 1000 times to make the concentration of cells around 5 × 10^5 per milliliter. The test was performed using a temperature controlled plate reader [Tecan200 (Tecan Group AG)] and 96 well plate (Greiner Bio-one). 180 μl indicator strain culture mixed with 20 μl hinge region analogs with final concentration from 0.031 μg/ml–32 μg/ml was incubated at 30°C or 37°C for 18 h. OD (600 nm) was checked every 30 min. For aerobic strains, 2 min of shaking was performed before every check. The concentration of peptide without observed growth of indicator strains was considered as the MIC value.

The test system of assay [7] is Bacillus cereus 4147. As to the kind of experiment: MIC in liquid culture. To be noted: MIC value of nisin divided by that of the analog. The assay is classed as cell-based. Here is the method:
as §1, §10

Assay [8] has as its system Bacillus cereus (L′29) 16. As to the kind of experiment: MIC in liquid culture. Type of assay: cell-based. To be noted: MIC value of nisin divided by that of the analog. As to the method: as §1, §10
Assay [9] concerns Enterococcus faecalis VE14089. As to the kind of experiment: MIC in liquid culture. The assay is classed as cell-based. To be noted: MIC value of nisin divided by that of the analog. Here is the method:
as §1, §10

Assay [10] deals with Streptococcus pneumoniae R6. As to the kind of experiment: MIC in liquid culture. To be noted: MIC value of nisin divided by that of the analog. The assay is classed as cell-based. Here is the method:
as §1, §10

The test system of assay [11] is Staphylococcus aureus. As to the kind of experiment: MIC in liquid culture. The assay is classed as cell-based. To be noted: MIC value of nisin divided by that of the analog. Here is the method:
as §1, §10

Assay [12] concerns Bacillus sporothermodurans IC4. As to the kind of experiment: MIC in liquid culture. The assay is classed as cell-based. To be noted: MIC value of nisin divided by that of the analog. As to the method: as §1, §10
For assay [13], the system named is Listeria monocytogenes. As to the kind of experiment: MIC in liquid culture. Type of assay: cell-based. To be noted: MIC value of nisin divided by that of the analog. Here is the method: as §1, §10
Assay [14] relates to Bacillus cereus 4153. As to the kind of experiment: MIC in liquid culture. The assay is classed as cell-based. To be noted: MIC value of nisin divided by that of the analog. Here is the method:
as §1, §10

Assay [15] concerns Lactococcus lactis MG1363. As to the kind of experiment: MIC in liquid culture. The assay is classed as cell-based. To be noted: MIC value of nisin divided by that of the analog. As to the method: as §1, §10
Assay [16] relates to S. aureus. As to the kind of experiment: Agar well diffusion assay. The assay is classed as cell-based, Staphylococcus aureus. To be noted: 20 °C; estimated from halo diameter by nisin standard curve, relative to wt. Here is the method:
as §1, §2, §3, §4, §5
as §6, with “nisin. […]” for “nisin.”

Where [17] appears, read: 20 °C, estimated from halo diameter by nisin standard curve (halo diameter vs log of nisin concentration).
The mark [18] stands for this setting: 30 °C, estimated from halo diameter by nisin standard curve.

This is an account of results in publication PMC4310329, “The length of a lantibiotic hinge region has profound influence on antimicrobial activity and host specificity” (Frontiers in Microbiology, 2015).

As to `C=C(NC(=O)[C@@H](NC(=O)[C@H](Cc1c[nH]cn1)NC(=O)[C@@H](NC(=O)[C@H](CO)NC(=O)[C@@H]1CS[C@@H](C)[C@H]2NC(=O)[C@H](C)NC(=O)[C@H](NC(=O)[C@H](CCCCN)NC(=O)[C@H](CC(N)=O)NC(=O)[C@@H]3CS[C@@H](C)[C@@H](NC(=O)[C@H](CCCCN)NC(=O)[C@@H]4CS[C@@H](C)[C@@H](NC(=O)[C@@H]5CSC[C@@H](NC(=O)/C(=C/C)NC(=O)[C@@H](N)[C@@H](C)CC)C(=O)N[C@@H]([C@@H](C)CC)C(=O)NC(=C)C(=O)N[C@@H](CC(C)C)C(=O)N5)C(=O)N5CCC[C@H]5C(=O)NCC(=O)N4)C(=O)NCC(=O)N[C@@H](C)C(=O)N[C@@H](CC(C)C)C(=O)N[C@@H](CCSC)C(=O)NCC(=O)N3)[C@H](C)SC[C@H](NC2=O)C(=O)N[C@@H](Cc2c[nH]cn2)C(=O)N1)[C@@H](C)CC)C(C)C)C(=O)N[C@@H](CCCCN)C(=O)O` [−1], the Residual activity is 21% in assay [1] (20 °C); 72% in assay [1] (30 °C); 140% in [1] (37 °C); 19% in [2] (20 °C); 29% in [2] (30 °C); 522% in assay [3]. Also, the Residual activity in [4] is listed as 0%; in assay [5] (setting [17]), 33%; in assay [5] (setting [18]) it was 17%; in assay [16] it was 16%. For the same molecule, the “Residual activity of variants compared to nisin” value in [6] is on record as below 25%; in assay [7], below 13%; in assay [8], below 13%; in assay [9], below 6%; in assay [10], 25%; in [11], 3%. Also, the “Residual activity of variants compared to nisin” value in [12] is reported as 50%; in assay [13], below 25%; in assay [14] it was below 13%; in [15] it was 3%.
`C=C(NC(=O)[C@@H](NC(=O)[C@H](Cc1c[nH]cn1)NC(=O)[C@@H](NC(=O)[C@H](CO)NC(=O)[C@@H]1CS[C@@H](C)[C@H]2NC(=O)[C@H](C)NC(=O)[C@H](NC(=O)[C@H](CCCCN)NC(=O)[C@H](CCSC)NC(=O)[C@H](CC(C)C)NC(=O)[C@@H](NC(=O)[C@@H](NC(=O)[C@H](CC(N)=O)NC(=O)[C@@H]3CS[C@@H](C)[C@@H](NC(=O)[C@H](CCCCN)NC(=O)[C@@H]4CS[C@@H](C)[C@@H](NC(=O)[C@@H]5CSC[C@@H](NC(=O)/C(=C/C)NC(=O)[C@@H](N)[C@@H](C)CC)C(=O)N[C@@H]([C@@H](C)CC)C(=O)NC(=C)C(=O)N[C@@H](CC(C)C)C(=O)N5)C(=O)N5CCC[C@H]5C(=O)NCC(=O)N4)C(=O)NCC(=O)N[C@@H](C)C(=O)N[C@@H](CC(C)C)C(=O)N[C@@H](CCSC)C(=O)NCC(=O)N3)[C@@H](C)CC)C(C)C)[C@H](C)SC[C@H](NC2=O)C(=O)N[C@@H](Cc2c[nH]cn2)C(=O)N1)[C@@H](C)CC)C(C)C)C(=O)N[C@@H](CCCCN)C(=O)O` [+3]: the Residual activity in assay [1] (20 °C) is given as 6%; in assay [1] (30 °C), 9%; in [1] (37 °C) it was 14%; in assay [2] (20 °C), 3%; in assay [2] (30 °C) it was 3%; in assay [3] it was 10%. The Residual activity is reported as 7% in [4], 5% in [5] (setting [17]), 3% in assay [5] (setting [18]) and 0% in [16]. In addition, the “Residual activity of variants compared to nisin” value in assay [6] is 25%; in assay [7], 25%; in [8], 13%; in assay [9], below 21%; in assay [10], 13%; in [11], below 3%. Besides, the “Residual activity of variants compared to nisin” value in [12] is on record as 17%; in [13], below 25%; in [14], 13%; in assay [15], 13%.
